Assay results from PMC10634319 (Biochemistry, 2023).

Assays:
human ABCB10 [1] = target: T1, human ABCB10 (Homo sapiens, UniProt Q9NRK6); details: 0.3 μM protein, 0-2000 μM ATP, 5 mM MgCl2, 37 °C, no added lipid
T1 sequence (Q9NRK6 152-738): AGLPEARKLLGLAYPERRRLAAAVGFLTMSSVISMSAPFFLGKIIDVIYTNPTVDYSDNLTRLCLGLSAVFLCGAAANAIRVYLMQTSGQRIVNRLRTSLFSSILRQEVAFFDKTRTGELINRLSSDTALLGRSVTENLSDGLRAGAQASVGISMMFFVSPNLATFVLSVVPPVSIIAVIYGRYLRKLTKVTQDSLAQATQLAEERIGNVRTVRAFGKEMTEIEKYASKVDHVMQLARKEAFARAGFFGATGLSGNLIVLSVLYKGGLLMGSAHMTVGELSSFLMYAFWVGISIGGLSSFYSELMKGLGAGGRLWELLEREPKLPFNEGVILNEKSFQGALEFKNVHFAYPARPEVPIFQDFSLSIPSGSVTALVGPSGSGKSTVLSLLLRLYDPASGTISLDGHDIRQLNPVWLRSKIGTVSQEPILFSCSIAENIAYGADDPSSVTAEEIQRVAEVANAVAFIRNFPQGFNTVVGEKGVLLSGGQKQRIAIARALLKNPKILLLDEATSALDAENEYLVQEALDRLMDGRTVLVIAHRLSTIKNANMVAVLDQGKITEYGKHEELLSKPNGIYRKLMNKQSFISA

human ABCB10 [2] = target: T1, human ABCB10; experiment: ATPase activity, malachite green phosphate assay; type: biochemical

Compound	KM (human ABCB10 [1])	IC50 (human ABCB10 [2]) [µM]
Nc1ncnc2c1ncn2[C@@H]1O[C@H](COP(=O)(O)OP(=O)(O)OP(=O)(O)O)[C@@H](O)[C@H]1O [ATP]	Michaelis–Menten equation was fitted to the initial rates to determine the Michaelis constant (KM)	–
CCCCCCCC/C=C\CCCCCCCC(=O)OC[C@H](COP(=O)(O)OCC(O)COP(=O)(O)OC[C@@H](COC(=O)CCCCCCC/C=C\CCCCCCCC)OC(=O)CCCCCCC/C=C\CCCCCCCC)OC(=O)CCCCCCC/C=C\CCCCCCCC (some centres unmarked) [TOCDL, 1,1′,2,2′-tetraoleoyl-cardiolipin]	–	~10
